Reference: patent US20150359854A1 (HUMAN MATRIX SCIENCES, LLC, priority 2012, published 2015)
“Also recorded” adds a separate entry of the source.

Experiments:
tropoelastin mRNA = test: RT-PCR assay of tropoelastin mRNA; type: cell-based, human; settings: 10 nmol/L insulin; for effect of inhibitor on insulin-induced up-regulation of tropoelastin mRNA: pretreated 30 minutes and maintained with inhibitor
Description: At the end of the treatments, total RNA was extracted from quadruplicate cultures in each experimental group using the RNEASY® (RNA isolation) Mini Kit. One microgram total RNA from each sample was added to one-step RT-PCR (One-Step RT-PCR Kit; Qiagen, Inc.). The reactions were set up in a total volume of 25 μL. The reverse transcription step was performed for elastin and 18S ribosomal RNA reactions at 50° C. for 30 minutes, followed by 15 minutes at 95° C. The elastin PCR reaction using sense primer 5′[…]-3′ (SEQ ID NO 1) and antisense primer 5′[…]3′ (SEQ ID NO 2). The products were analyzed using ethidium bromide staining and densitometry-based image analysis using an optical system (Gel Doc 1000; Bio-Rad Laboratories, Inc., Hercules, Calif.). The amount of tropoelastin mRNA was standardized relative to the amount of 18S ribosomal RNA and expressed as percentage of control values.

[1] = test system: human aortic SMCs (AoSMCs); test: Immunocytochemistry and morphometry of elastic fibers in AoSMC cultures; type: cell-based; settings: for effect of inhibitor on elastogenic effects of IGF-1: 10 nmol/L IGF-1, parallel AoSMC cultures; for effect of inhibitor on elastogenic effects of insulin (immunostained elastic fibers, [3H]-valine-labeled insoluble elastin): 2% FBS
Text: Human aortic SMCs (AoSMCs) were propagated from small fragments of aortic media collected from autopsy. Guidelines for the protection of human subjects of the US Department of Health and Human Services and of the Declaration of Helsinki were followed in obtaining tissues for this investigation. Cells migrating from the cultured explants of aortic media were routinely passaged (up to three times) via trypsinization using 0.2% trypsin-0.02% EDTA, and were maintained in DMEM supplemented with 5% FBS and 1% antibiotic-antimycotic mix. The second and third passages of cells that migrated from the original explants of aortic media were routinely probed with antibodies recognizing the SMC-specific α-actin to monitor the preservation of the SMC phenotype. All cells were initially plated at 100,000 cells per dish for immediate confluency so they would begin extracellular matrix production. The cell cultures committed to particular experiments were then transferred to DMEM containing either 2% FBS or to serum-free medium before initiation of particular treatments.
At the end of treatments, confluent cultures of AoSMCs were fixed in cold 100% methanol at −20° C. for 30 minutes, and blocked with 1% normal goat serum for 1 hour. The cultures were then incubated for 1 hour with 10 μg/mL polyclonal antibodies to tropoelastin and/or with 10 μg/mL monoclonal antibody to SMC-specific α-actin. All cultures were then incubated for another hour with the respective fluorescein-conjugated secondary antibodies (fluorescein-conjugated goat anti-rabbit or anti-mouse). Nuclei were counterstained with red-fluorescent propidium iodide or blue-fluorescent DAPI. The cultures were then mounted in ethanol and examined using a microscope (Eclipse E1000; Nikon Instruments, Inc., Melville, N.Y.) attached to a cooled CCD camera (Retiga EX; QImaging Corp., Vancouver, BC, Canada) and a computer-generated morphometric analysis system (Image-Pro Plus software; Media Cybernetics, Inc., Bethesda, Md.). In each analyzed group, 50 low-power fields from three separate cultures were analyzed, and the areas occupied by immunodetectable elastic fibers were expressed as a percentage of the entire analyzed field.

tropoelastin = test: Metabolically labeled tropoelastin in cell extracts and conditioned media (secretion); type: cell-based, human; settings: 1-hour preincubation with LY294002, 10 nmol/L insulin
Description: Cells were plated in 35-mm dishes at a density of 100,000 cells per dish and were grown to confluency. Two microcuries [3H]-valine per milliliter fresh medium supplemented with 2% FBS was added 2 hours before the indicated treatments. At the end of each experiment, the conditioned medium was collected and subjected to immunoprecipitation using anti-tropoelastin antibody. The cell layers were washed with PBS and incubated using radioimmunoprecipitation lysis buffer for 10 minutes on ice. After centrifugation, the supernatants were collected and subjected to immunoprecipitation using anti-tropoelastin antibody. […] Final results (counts per minute) reflecting the total amount of [3H]-valine-labeled insoluble elastin in individual cultures were normalized per their DNA contents (assessed using the Qiagen […] isolation) Tissue Kit) and expressed as percentage of control values. At the end of all treatments, cells from quadruplicate cultures in each experimental group were lysed using NP40 cell lysis buffer (Invitrogen Corp.). Thirty micrograms of protein extracts from each sample was suspended in standard sample buffer, resolved on 4% to 12% gradient SDS-PAGE gels, transferred to nitrocellulose membranes, and subjected to Western blotting using antibodies. At the end of indicated treatments, the cultured cells were lysed as described, and 300 μL aliquots of cell extracts containing […] were incubated at 4° C. for 3 hours with the aliquots of protein G bound DYNABEADS® (Invitrogen Corp.) that were conjugated with either rabbit polyclonal anti-tropoelastin, goat polyclonal anti-Glut10, or rabbit polyclonal anti-S-Gal antibodies. The beads carrying the final immunoprecipitation products were then washed with PBS, resuspended in sample buffer, and boiled for 5 minutes. The released proteins were then resolved on SDS-PAGE gel and subjected to Western blotting using indicated antibodies.

S-Gal/EBP = test: Association of tropoelastin with S-Gal/EBP chaperone (Western blot, co-immunoprecipitation, double immunostaining); type: cell-based, human
Description: Cultures fixed for 30 minutes in cold 100% methanol were then blocked with 1% glycine for 15 minutes, followed by 2% bovine serum albumin with 0.1% Triton X-100 for another hour at room temperature. They were finally exposed for 1 hour to the mixture of 5 μg/mL polyclonal anti-S-Gal/EBP and 5 μg/mL monoclonal anti-tropoelastin antibodies. All cultures were then incubated for another hour with the mixture of fluorescein-conjugated and rhodamine-conjugated secondary antibodies. Nuclei were counterstained with DAPI. At the end of all treatments, cells from quadruplicate cultures in each experimental group were lysed using NP40 cell lysis buffer (Invitrogen Corp.). Thirty micrograms of protein extracts from each sample was suspended in standard sample buffer, resolved on 4% to 12% gradient SDS-PAGE gels, transferred to nitrocellulose membranes, and subjected to Western blotting using antibodies. At the end of indicated treatments, the cultured cells were lysed as described, and 300 μL aliquots of cell extracts containing […] were incubated at 4° C. for 3 hours with the aliquots of protein G bound DYNABEADS® (Invitrogen Corp.) that were conjugated with either rabbit polyclonal anti-tropoelastin, goat polyclonal anti-Glut10, or rabbit polyclonal anti-S-Gal antibodies. The beads carrying the final immunoprecipitation products were then washed with PBS, resuspended in sample buffer, and boiled for 5 minutes. The released proteins were then resolved on SDS-PAGE gel and subjected to Western blotting using indicated antibodies.

FoxO1 = FoxO1 binding to elastin gene promoter DNA probe (FRE) on DYNABEADS; type: cell-based, human; settings: AoSMCs treated 30 minutes with 10 nmol/L insulin, or preincubated with LY294002
Description: Cells were then scraped, and their nuclear extracts were pre-pared using an isolation kit (Active Motif, Inc.). […] The equal molar amounts of both single-stranded DNA oligonucleotides were annealed in Tris-EDTA buffer (10 mmol/L Tris-HCl, 1 mmol/L EDTA (pH 8.0)) to form the double-stranded DNA probe. […] All preparations were subsequently incubated for 2 hours in 200 μL binding buffer (50 mmol/L KCl, 10% glycerol, 20 mmol/L HEPES (pH 7.9), 1 mmol/L MgCl2, 1 mmol/L DTT, 0.1 μg poly(DI-DC) (polydeoxyinosinic-deoxycytidylic), and proteinase inhibitors). After binding, the beads were washed four times in the same binding buffer, without poly(DI-DC). The bound proteins were resolved using 8% SDS-PAGE and probed using Western blotting with the anti-FoxO1 monoclonal antibody.

[2] = 10 nmol/L IGF-1, 24-hour AoSMC cultures
[3] = 24-hour AoSMC cultures, 10 nmol/L insulin

Molecule: OC[C@H]1O[C@@H](n2cnc3cc(Cl)c(Cl)cc32)[C@H](O)[C@@H]1O [dichloro-benzimidazole riboside, dichlorobenzimidazole riboside]
- effect of transcription inhibitor on insulin-induced up-regulation of tropoelastin mRNA (tropoelastin mRNA; pretreatment with 50 μmol/L inhibitor): completely abolished

Molecule: IGF-1
- elastogenic effect of IGF-1 [1, 2]: elastogenic effects

Molecule: O=c1cc(N2CCOCC2)oc2c(-c3ccccc3)cccc12 [LY294002]
- effect of inhibitor on insulin-induced up-regulation of tropoelastin mRNA (tropoelastin mRNA): abrogated
- effect of PI3K inhibition on insulin-induced changes in tropoelastin levels (tropoelastin): could not be observed
- insulin-induced tropoelastin/S-Gal/EBP co-localization in cells preincubated with inhibitor (S-Gal/EBP; LY294002 preincubation (data not shown)): could not induce such tropoelastin/S-Gal/EBP co-localization
- effect of PI3K inhibitor on insulin-induced S-Gal/EBP coimmunoprecipitation (S-Gal/EBP; pretreated 30 minutes with PI3K inhibitor): could not be induced; also recorded: could not induce the same effect
- binding of FoxO1 from nuclear extracts to elastin promoter FRE DNA probe (FoxO1): bound abundant FoxO1 proteins
- effect of inhibitor on elastogenic effects of IGF-1 [1]: abolished the elastogenic effects; also recorded: also eliminated
- effect of inhibitor on elastogenic effects of insulin (immunostained elastic fibers, [3H]-valine-labeled insoluble elastin) [1, 3]: eliminated the elastogenic effects

Molecule: COc1ccc(CNc2nc(N(CCO)CCO)nc3c2ncn3C(C)C)cc1 [CVT313]
- effect of cdk-2 inhibition on elastogenic effect of IGF-1 [1, 2]: abolished the final elastogenic effect
- effect of cdk-2 inhibition on elastogenic effect of insulin ([1]; 10 nmol/L insulin, 24-hour AoSMC cultures): did not diminish the elastogenic effect; also recorded: still exhibited heightened deposition of elastic fibers

Molecule: COc1cc([C@@H]2c3cc4c(cc3[C@H](O)[C@H]3COC(=O)[C@@H]23)OCO4)cc(OC)c1OC [picropodophyllin]
- effect of inhibitor on insulin-induced up-regulation of tropoelastin mRNA (tropoelastin mRNA): did not inhibit
- effect of inhibitor on elastogenic effects of IGF-1 [1]: also eliminated

Molecule: CC(C)(C)c1cc(C=C(C#N)C#N)cc(Br)c1O [AG1024]
- effect of inhibitor on insulin-induced up-regulation of tropoelastin mRNA (tropoelastin mRNA): abrogated
- effect of inhibitor on elastogenic effects of insulin (immunostained elastic fibers, [3H]-valine-labeled insoluble elastin) [1, 3]: eliminated the elastogenic effects
